EP4578856A1, “HETEROCYCLIC COMPOUND” (Ubience Inc., priority 2022, dated 2024)

Biological target: ROCK2 protein (Homo sapiens, UniProt O75116)
Assay: Degradation inducing activity of ROCK2 protein in HUVEC cells, Western blotting (Simple Western JESS)
Format: cell-based
Design: endogenous in cells; host or cells: HUVEC (ATCC CRL-1730)
Conditions: HUVEC, 24 h; for inhibition at 1 µM: degradation rate at 1 µM; for inhibition at 10 µM: degradation rate at 10 µM
Method: In vitro degradation inducing activity of ROCK2 protein of compounds of Examples was evaluated by Western Blotting (WB).
By a test compound, 10 mM DMSO solution was prepared, which was used as a 10 µM test compound solution. Further, the solution was diluted 10-fold with DMSO to prepare a 1 mM solution, which was used as a 1 µM test compound solution.
HUVEC cells (ATCC: CRL-1730, Lot: 70041472) were cultured in F-12K medium supplemented with 10% FBS, 0.1 mg/mL heparin, […] Endothelial Cell Growth Supplement (ECGS, Corning), and 1% Penicillin/Streptomycin. The HUVEC cells seeded in a 24 well plate at 50,000 cells/well/1 mL were cultured for 24 hours, and then 1 µL of DMSO or a test compound solution was added thereto and treatment was performed for 24 hours. Cells were harvested and lysed for 20 minutes on ice using lysis buffer (Cell Signaling Technology, Cat#9803) supplemented with protease inhibitor cocktail (Sigma, Cat#P8340; Roche, Cat#P11873580001), and phosphatase inhibitor cocktail (Sigma, Cat#P5726, P0044). The lysate was sonicated (15 seconds, amplitude 30%, 1 cycle) and then centrifuged at 12500 rpm for 15 minutes at 4°C. The protein concentration was determined by BCA assay kit (Thermo Fisher Scientific, Cat#23225).
The western blotting was performed using Simple Western JESS (protein simple). A cell lysis sample (protein amount; about 1.06 µg) was loaded on a plate of Simple Western JESS, and the expression level of ROCK2 protein was detected using a 12-230 kDa Wes Separation Module (Protein simple, Cat#SM-WO04), an Anti-Rabbit Detection Module for Wes (Protein simple, Cat#DM-001), and a Total Protein Detection Module for Wes (Protein simple, Cat#DM-TP01). As the primary antibody, a material obtained by diluting ROCK2 (D1B1) Rabbit mAb (Cell Signaling Technology, Cat#9029) at 1:10 was used, and as the secondary antibody, a material obtained by diluting HRP-labeled anti-rabbit IgG antibody (Cell Signaling Technology, Cat#7074S) at 1:100 was used. The expression level of the target protein was standardized using the total protein amount loaded as a reference. The standardized expression level data of the control (DMSO) was taken as 100%, and the degradation rate (%) was calculated from the average standardized expression level data of the test compound. All analysis steps, such as data detection and analysis, are fully automated.
With respect to the ROCK2 protein degradation rate of the test compound, the protein degradation rates (%) at the evaluation concentrations were set to A ≥ 75%, 75% > B ≥ 50%, 50% > C ≥ 25%, and D < 25%, and are shown in Table 7.

Sequence of ROCK2 protein (O75116 whole entry): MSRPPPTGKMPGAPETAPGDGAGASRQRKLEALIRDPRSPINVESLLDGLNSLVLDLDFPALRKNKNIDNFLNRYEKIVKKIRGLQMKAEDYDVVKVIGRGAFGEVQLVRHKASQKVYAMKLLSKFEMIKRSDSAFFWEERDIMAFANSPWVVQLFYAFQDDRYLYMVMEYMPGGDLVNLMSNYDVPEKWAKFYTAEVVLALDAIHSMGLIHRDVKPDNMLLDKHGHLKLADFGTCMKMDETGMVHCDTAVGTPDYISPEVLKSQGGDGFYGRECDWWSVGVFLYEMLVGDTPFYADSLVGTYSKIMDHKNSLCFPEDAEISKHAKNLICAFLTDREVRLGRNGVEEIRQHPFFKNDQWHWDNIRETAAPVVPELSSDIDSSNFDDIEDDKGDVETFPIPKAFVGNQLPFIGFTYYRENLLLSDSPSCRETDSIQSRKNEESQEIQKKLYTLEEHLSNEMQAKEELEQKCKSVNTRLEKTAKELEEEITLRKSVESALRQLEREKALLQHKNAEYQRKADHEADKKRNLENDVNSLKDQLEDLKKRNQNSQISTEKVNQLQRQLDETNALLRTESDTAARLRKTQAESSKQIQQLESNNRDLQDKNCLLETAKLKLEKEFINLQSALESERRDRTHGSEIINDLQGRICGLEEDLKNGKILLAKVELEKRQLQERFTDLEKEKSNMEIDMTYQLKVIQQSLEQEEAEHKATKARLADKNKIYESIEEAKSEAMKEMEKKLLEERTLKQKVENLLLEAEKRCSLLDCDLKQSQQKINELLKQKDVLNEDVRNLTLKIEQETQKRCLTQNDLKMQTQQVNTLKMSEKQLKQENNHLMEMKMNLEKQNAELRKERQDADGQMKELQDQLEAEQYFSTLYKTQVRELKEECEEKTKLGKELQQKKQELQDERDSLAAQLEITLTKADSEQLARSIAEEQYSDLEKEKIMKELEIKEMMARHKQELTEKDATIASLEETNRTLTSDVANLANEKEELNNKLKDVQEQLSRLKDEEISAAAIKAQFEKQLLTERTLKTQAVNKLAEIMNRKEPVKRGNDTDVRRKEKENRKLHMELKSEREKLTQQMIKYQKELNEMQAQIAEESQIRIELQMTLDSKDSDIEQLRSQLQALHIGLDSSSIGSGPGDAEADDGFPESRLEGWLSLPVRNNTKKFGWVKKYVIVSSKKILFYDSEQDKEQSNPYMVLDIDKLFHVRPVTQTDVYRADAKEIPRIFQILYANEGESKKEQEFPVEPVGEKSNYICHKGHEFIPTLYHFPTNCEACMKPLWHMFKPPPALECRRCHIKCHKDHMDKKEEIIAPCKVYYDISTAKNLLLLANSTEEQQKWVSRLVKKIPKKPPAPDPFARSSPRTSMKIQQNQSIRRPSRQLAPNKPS

inhibition at 1 µM [%] | inhibition at 10 µM [%] | Compound
50 to 75 | 25 to 50 | COC[C@H]1CN[C@H](C)CN1CC(=O)N1CC(C)(C)c2ncc(Cc3ccccc3OCCOCCOCCOCCOCCNC[C@@H](C(=O)Nc3ccc4cnccc4c3)c3ccccc3)cc21 [Example 81, (S)-N-(Isoquinolin-6-yl)-1-(2-((1-(2-((2R,5R)-2-(methoxymethyl)-5-methylpiperazin-1-yl)acetyl)-3,3-dimethyl-2,3-dihydro-1H-pyrrolo[3,2-b]pyridin-6-yl)methyl)phenoxy)-17-phenyl-3,6,9,12-tetraoxa-15-azaoctadecan-18-amide]
50 to 75 | ≥ 75 | COC[C@H]1CN[C@H](C)CN1CC(=O)N1CC(C)(C)c2ncc(Cc3cccc(OCCOCCOCCN[C@H](Cc4cccc(F)c4)C(=O)Nc4ccc(-c5ccncc5)cc4)c3)cc21 [Example 51, (R)-3-(3-Fluorophenyl)-2-((2-(2-(2-(3-((1-(2-((2R,5R)-2-(methoxymethyl)-5-methylpiperazin-1-yl)acetyl)-3,3-dimethyl-2,3-dihydro-1H-pyrrolo[3,2-b]pyridin-6-yl)methyl)phenoxy)ethoxy)ethoxy)ethyl)amino)-N-(4-(pyridin-4-yl)phenyl)propenamide]
25 to 50 | ≥ 75 | C[C@@H]1CN(CC(=O)N2CC(C)(C)c3ncc(Cc4ccc(F)cc4)cc32)[C@@H](CN(C)CCOCCN[C@H](C)c2ccc(C(=O)Nc3ccncc3)cc2)CN1 [Example 1, 4-((R)-1-((2-(2-((((2R,5R)-1-(2-(6-(4-Fluorobenzyl)-3,3-dimethyl-2,3-dihydro-1H-pyrrolo[3,2-b]pyridin-1-yl)-2-oxoethyl)-5-methylpiperazin-2-yl)methyl)(methyl)amino)ethoxy)ethyl)amino)ethyl)-N-(pyridin-4-yl)benzamide]
≥ 75 | ≥ 75 | COC[C@H]1CN[C@H](C)CN1CC(=O)N1CC(C)(C)c2ncc(Cc3ccccc3OCCOCCOCCOCCOCCOCCOCCOCCN[C@H](C)c3ccc(C(=O)Nc4ccncc4)cc3)cc21 [Example 70, 4-((R)-26-(2-((1-(2-((2R,5R)-2-(Methoxymethyl)-5-methylpiperazin-1-yl)acetyl)-3,3-dimethyl-2,3-dihydro-1H-pyrrolo[3,2-b]pyridin-6-yl)methyl)phenoxy)-6,9,12,15,18,21,24-heptaoxa-3-azahexacosan-2-yl)-N-(pyridin-4-yl)benzamide]
50 to 75 | ≥ 75 | COC[C@H]1CN[C@H](C)CN1CC(=O)N1CC(C)(C)c2ncc(Cc3cccc(OCCOCCOCCN[C@H](C)c4ccc(C(=O)Nc5ccncc5)cc4)c3)cc21 [Example 44, 4-((R)-1-((2-(2-(2-(3-((1-(2-((2R,5R)-2-(Methoxymethyl)-5-methylpiperazin-1-yl)acetyl)-3,3-dimethyl-2,3-dihydro-1H-pyrrolo[3,2-b]pyridin-6-yl)methyl)phenoxy)ethoxy)ethoxy)ethyl)amino)ethyl)-N-(pyridin-4-yl)benzamide]
≥ 75 | ≥ 75 | COC[C@H]1CN[C@H](C)CN1CC(=O)N1CC(C)(C)c2ncc(Cc3ccccc3OCCOCCOCCOCCOCCOCCOCCN[C@H](C)c3ccc(C(=O)Nc4ccncc4)cc3)cc21 [Example 69, 4-((R)-23-(2-((1-(2-((2R,5R)-2-(Methoxymethyl)-5-methylpiperazin-1-yl)acetyl)-3,3-dimethyl-2,3-dihydro-1H-pyrrolo[3,2-b]pyridin-6-yl)methyl)phenoxy)-6,9,12,15,18,21-hexaoxa-3-azatricosan-2-yl)-N-(pyridin-4-yl)benzamide]
25 to 50 | ≥ 75 | COC[C@H]1CN[C@H](C)CN1CC(=O)N1CC(C)(C)c2ncc(Cc3cccc(OCCOCCN[C@H](Cc4cccc(F)c4)C(=O)Nc4ccc(-c5ccncc5)cc4)c3)cc21 [Example 50, (R)-3-(3-Fluorophenyl)-2-((2-(2-(3-((1-(2-((2R,5R)-2-(methoxymethyl)-5-methylpiperazin-1-yl)acetyl)-3,3-dimethyl-2,3-dihydro-1H-pyrrolo[3,2-b]pyridin-6-yl)methyl)phenoxy)ethoxy)ethyl)amino)-N-(4-(pyridin-4-yl)phenyl)propanamide]
50 to 75 | ≥ 75 | C[C@@H]1CN(CC(=O)N2CC(C)(C)c3ncc(Cc4ccc(F)cc4)cc32)[C@@H](CN(C)CCOCCOCCOCCOCCN[C@H](Cc2cccc(F)c2)C(=O)Nc2ccc(-c3ccncc3)cc2)CN1 [Example 11, (R)-18-(3-Fluorobenzyl)-1-((2R,5R)-1-(2-(6-(4-fluorobenzyl)-3,3-dimethyl-2,3-dihydro-1H-pyrrolo[3,2-b]pyridin-1-yl)-2-oxoethyl)-5-methylpiperazin-2-yl)-2-methyl-N-(4-(pyridin-4-yl)phenyl)-5,8,11,14-tetraoxa-2,17-diazanonadecan-19-amide]
< 25 | < 25 | COC[C@H]1CN[C@H](C)CN1CC(=O)N1CC(C)(C)c2nc(CN(C)CCOCCOCCOCCOCCOCCOCCN[C@H](C)c3ccc(C(=O)Nc4ccncc4)cc3)c(Cc3ccc(F)cc3)cc21 [Example 27, 4-((R)-1-(6-(4-Fluorobenzyl)-1-(2-((2R,5R)-2-(methoxymethyl)-5-methylpiperazin-1-yl)acetyl)-3,3-dimethyl-2,3-dihydro-1H-pyrrolo[3,2-b]pyridin-5-yl)-2-methyl-5,8,11,14,17,20-hexaoxa-2,23-diazapentacosan-24-yl)-N-(pyridin-4-yl)benzamide]
< 25 | ≥ 75 | COC[C@H]1CN[C@H](C)CN1CC(=O)N1CC(C)(C)c2nc(CN(C)CCOCCOCCOCCNC[C@@H](C(=O)Nc3ccc4cnccc4c3)c3ccccc3)c(Cc3ccc(F)cc3)cc21 [Example 38, (S)-1-(6-(4-Fluorobenzyl)-1-(2-((2R,5R)-2-(methoxymethyl)-5-methylpiperazin-1-yl)acetyl)-3,3-dimethyl-2,3-dihydro-1H-pyrrolo[3,2-b]pyridin-5-yl)-N-(isoquinolin-6-yl)-2-methyl-16-phenyl-5,8,11-trioxa-2,14-diazaheptadecan-17-amide]
< 25 | ≥ 75 | COC[C@H]1CN[C@H](C)CN1CC(=O)N1CC(C)(C)c2nc(CN(C)CCOCCOCCOCCOCCN[C@H](Cc3cccc(F)c3)C(=O)Nc3ccc(-c4ccncc4)cc3)c(Cc3ccc(F)cc3)cc21 [Example 32, (R)-18-(3-Fluorobenzyl)-1-(6-(4-fluorobenzyl)-1-(2-((2R,5R)-2-(methoxymethyl)-5-methylpiperazin-1-yl)acetyl)-3,3-dimethyl-2,3-dihydro-1H-pyrrolo[3,2-b]pyridin-5-yl)-2-methyl-N-(4-(pyridin-4-yl)phenyl)-5,8,11,14-tetraoxa-2,17-diazanonadecan-19-amide]
50 to 75 | ≥ 75 | COC[C@H]1CN[C@H](C)CN1CC(=O)N1CC(C)(C)c2nc(CN(C)CCOCCOCCOCCOCCOCCOCCOCCN[C@H](Cc3cccc(F)c3)C(=O)Nc3ccc(-c4ccncc4)cc3)c(Cc3ccc(F)cc3)cc21 [Example 35, (R)-27-(3-Fluorobenzyl)-1-(6-(4-fluorobenzyl)-1-(2-((2R,5R)-2-(methoxymethyl)-5-methylpiperazin-1-yl)acetyl)-3,3-dimethyl-2,3-dihydro-1H-pyrrolo[3,2-b]pyridin-5-yl)-2-methyl-N-(4-(pyridin-4-yl)phenyl)-5,8,11,14,17,20,23-heptaoxa-2,26-diazaoctacosan-28-amide]
